Patent publication US20230085307A1, “PYRIDAZINONE COMPOUND AND HERBICIDE” (NISSAN CHEMICAL CORPORATION, priority 2019, published 2023)

Tests used:
[1] = test system: green foxtail; assay: Test Example 5: herbicidal effect by foliage application, plastic box (Table 20, symbol G); assay type: in vivo, green foxtail (Setaria viridis); details: foliage application, 320 g/ha, evaluated three weeks after application
Outline: (§1)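 Plants were sown into sterilized diluvial soil under about 1.5 cm cover and kept in a greenhouse at 25° C. to 30° C. Fourteen days on, foliage received an even spray of the diluted emulsion. Herbicidal or crop effect was judged three weeks afterwards.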

[2] = test system: lambsquarters; assay: Test Example 5: herbicidal effect by foliage application, plastic box (Table 20, symbol O); assay type: in vivo, lambsquarters (Chenopodium album); details: foliage application, 320 g/ha, evaluated three weeks after application
Outline: as §1

[3] = test system: persian speedwell; assay: Test Example 5: herbicidal effect by foliage application, plastic box (Table 20, symbol R); assay type: in vivo, Persian speedwell (Veronica persica); details: foliage application, 320 g/ha, evaluated three weeks after application
Outline: as §1

[4] = test system: Japanese bulrush; assay: Test Example 1: herbicidal activity, application before weed generation under submerged conditions (Table 16, symbol B); assay type: in vivo, Japanese bulrush (Schoenoplectus juncoides); details: 320 g/ha applied herbicide
Outline: (§2)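 Alluvial soil was flooded to 4 cm depth, weed seeds were sown mixed and 2.5-leaf rice seedlings were transplanted. On sowing day, the compound's emulsion, diluted in water to a set dose, was applied to the water surface. Plants grew at 25–30 °C and were scored 0–5 after three weeks.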

[5] = test system: chickweed; assay: Test Example 4: herbicidal effect by soil treatment (Table 19, symbol P); assay type: in vivo, common chickweed (Stellaria media); details: 320 g/ha
Outline: (§3)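 In this soil treatment, the formulated compound reached the seeds only through the soil: seeds were buried about 1.5 cm deep in sterilized diluvial soil, then the diluted emulsion was sprayed over the surface. After three weeks at 25° C. to 30° C. in a greenhouse, effects were graded on criteria from an earlier test.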

[6] = test system: Italian ryegrass; assay: Test Example 5: herbicidal effect by foliage application, plastic box (Table 20, symbol K); assay type: in vivo, Italian ryegrass (Lolium multiflorum); details: foliage application, 320 g/ha, evaluated three weeks after application
Outline: as §1

[7] = test system: wild oat; assay: Test Example 4: herbicidal effect by soil treatment (Table 19, symbol I); assay type: in vivo, wild oat (Avena fatua); details: 320 g/ha
Outline: as §3

[8] = test system: southern crabgrass; assay: Test Example 5: herbicidal effect by foliage application, plastic box (Table 20, symbol F); assay type: in vivo, southern crabgrass (Digitaria ciliaris); details: foliage application, 320 g/ha, evaluated three weeks after application
Outline: as §1

[9] = test system: blackgrass; assay: Test Example 5: herbicidal effect by foliage application, plastic box (Table 20, symbol J); assay type: in vivo, blackgrass (Alopecurus myosuroides); details: foliage application, 320 g/ha, evaluated three weeks after application
Outline: as §1

[10] = test system: rice flat sedge; assay: Test Example 3: herbicidal effect by foliage application, Wagner pot (Table 18, symbol E); assay type: in vivo, rice flat sedge (Cyperus iria); details: 320 g/ha
Outline: (§4)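 Plants were sown in alluvial soil held under 0.1–0.5 cm standing water and grown 14 days in a greenhouse at 25–30 °C. An emulsifiable formulation, water-diluted to the set dose, was then sprayed onto the foliage, and effects were scored three weeks later using previously defined criteria.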

[11] = test system: green foxtail; assay: Test Example 4: herbicidal effect by soil treatment (Table 19, symbol G); assay type: in vivo, green foxtail (Setaria viridis); details: 320 g/ha
Outline: as §3

[12] = test system: windgrass; assay: Test Example 4: herbicidal effect by soil treatment (Table 19, symbol L); assay type: in vivo, windgrass (Apera spica-venti); details: 320 g/ha
Outline: as §3

[13] = test system: oval-leafed pondweed; assay: Test Example 1: herbicidal activity, application before weed generation under submerged conditions (Table 16, symbol C); assay type: in vivo, oval-leafed pondweed (Monochoria vaginalis); details: 320 g/ha applied herbicide
Outline: as §2

[14] = test system: southern crabgrass; assay: Test Example 4: herbicidal effect by soil treatment (Table 19, symbol F); assay type: in vivo, southern crabgrass (Digitaria ciliaris); details: 320 g/ha
Outline: as §3

[15] = test system: chickweed; assay: Test Example 5: herbicidal effect by foliage application, plastic box (Table 20, symbol P); assay type: in vivo, common chickweed (Stellaria media); details: foliage application, 320 g/ha, evaluated three weeks after application
Outline: as §1

[16] = test system: barnyard grass; assay: Test Example 5: herbicidal effect by foliage application, plastic box (Table 20, symbol H); assay type: in vivo, barnyard grass (Echinochloa crus-galli); details: foliage application, 320 g/ha, evaluated three weeks after application
Outline: as §1

[17] = test system: barnyard grass; assay: Test Example 3: herbicidal effect by foliage application, Wagner pot (Table 18, symbol H); assay type: in vivo, barnyard grass (Echinochloa crus-galli); details: 320 g/ha
Outline: as §4

[18] = test system: redroot pigweed; assay: Test Example 4: herbicidal effect by soil treatment (Table 19, symbol N); assay type: in vivo, redroot pigweed (Amaranthus retroflexus); details: 320 g/ha
Outline: as §3

[19] = test system: velvetleaf; assay: Test Example 5: herbicidal effect by foliage application, plastic box (Table 20, symbol M); assay type: in vivo, velvetleaf (Abutilon theophrasti); details: foliage application, 320 g/ha, evaluated three weeks after application
Outline: as §1

[20] = test system: false cleavers; assay: Test Example 5: herbicidal effect by foliage application, plastic box (Table 20, symbol Q); assay type: in vivo, false cleavers (Galium spurium); details: foliage application, 320 g/ha, evaluated three weeks after application
Outline: as §1

[21] = test system: blackgrass; assay: Test Example 4: herbicidal effect by soil treatment (Table 19, symbol J); assay type: in vivo, blackgrass (Alopecurus myosuroides); details: 320 g/ha
Outline: as §3

[22] = test system: persian speedwell; assay: Test Example 4: herbicidal effect by soil treatment (Table 19, symbol R); assay type: in vivo, Persian speedwell (Veronica persica); details: 320 g/ha
Outline: as §3

[23] = test system: Italian ryegrass; assay: Test Example 4: herbicidal effect by soil treatment (Table 19, symbol K); assay type: in vivo, Italian ryegrass (Lolium multiflorum); details: 320 g/ha
Outline: as §3

[24] = test system: Chinese sprangletop; assay: Test Example 3: herbicidal effect by foliage application, Wagner pot (Table 18, symbol D); assay type: in vivo, chinese sprangletop (Leptochloa chinensis); details: 320 g/ha
Outline: as §4

[25] = test system: velvetleaf; assay: Test Example 4: herbicidal effect by soil treatment (Table 19, symbol M); assay type: in vivo, velvetleaf (Abutilon theophrasti); details: 320 g/ha
Outline: as §3

[26] = test system: late watergrass; assay: Test Example 1: herbicidal activity, application before weed generation under submerged conditions (Table 16, symbol A); assay type: in vivo, late watergrass (Echinochloa oryzicola); details: 320 g/ha applied herbicide
Outline: as §2

[27] = test system: lambsquarters; assay: Test Example 4: herbicidal effect by soil treatment (Table 19, symbol O); assay type: in vivo, lambsquarters (Chenopodium album); details: 320 g/ha
Outline: as §3

[28] = test system: wild oat; assay: Test Example 5: herbicidal effect by foliage application, plastic box (Table 20, symbol I); assay type: in vivo, wild oat (Avena fatua); details: foliage application, 320 g/ha, evaluated three weeks after application
Outline: as §1

[29] = test system: false cleavers; assay: Test Example 4: herbicidal effect by soil treatment (Table 19, symbol Q); assay type: in vivo, false cleavers (Galium spurium); details: 320 g/ha
Outline: as §3

[30] = test system: redroot pigweed; assay: Test Example 5: herbicidal effect by foliage application, plastic box (Table 20, symbol N); assay type: in vivo, redroot pigweed (Amaranthus retroflexus); details: foliage application, 320 g/ha, evaluated three weeks after application
Outline: as §1

[31] = test system: barnyard grass; assay: Test Example 4: herbicidal effect by soil treatment (Table 19, symbol H); assay type: in vivo, barnyard grass (Echinochloa crus-galli); details: 320 g/ha
Outline: as §3

[32] = test system: windgrass; assay: Test Example 5: herbicidal effect by foliage application, plastic box (Table 20, symbol L); assay type: in vivo, windgrass (Apera spica-venti); details: foliage application, 320 g/ha, evaluated three weeks after application
Outline: as §1

CCCC(=O)Oc1c(C)nn(C)c(=O)c1-c1c(-c2ccc(F)cc2OC)sc2ccc(Cl)cc12 [2-096]
herbicidal effect on G: green foxtail [1]: 3 (Herbicidal rate of 40% or more and less than 70%) | herbicidal effect on O: lambsquarters [2]: 3 (Herbicidal rate of 40% or more and less than 70%) | herbicidal effect on R: persian speedwell [3]: 3 (Herbicidal rate of 40% or more and less than 70%) | Herbicidal effect on B: Japanese bulrush (grade 0-5) [4]: 3 (Herbicidal rate of 40% or more and less than 70%) | herbicidal effect rating, P: chickweed [5]: 4 (Herbicidal rate of 70% or more and less than 90%) | herbicidal effect on K: Italian ryegrass [6]: 0 (Herbicidal rate of 5% or less (almost no effect)) | herbicidal effect rating, I: wild oat [7]: 0 (Herbicidal rate of 5% or less (almost no effect)) | herbicidal effect on F: southern crabgrass [8]: 3 (Herbicidal rate of 40% or more and less than 70%) | herbicidal effect on J: blackgrass [9]: 4 (Herbicidal rate of 70% or more and less than 90%) | herbicidal effect on E (rice flat sedge), rating 0-5 [10]: 3 (Herbicidal rate of 40% or more and less than 70%) | herbicidal effect rating, G: green foxtail [11]: 3 (Herbicidal rate of 40% or more and less than 70%) | herbicidal effect rating, L: windgrass [12]: 0 (Herbicidal rate of 5% or less (almost no effect)) | Herbicidal effect on C: oval-leafed pondweed (grade 0-5) [13]: 2 (Herbicidal rate of 20% or more and less than 40%) | herbicidal effect rating, F: southern crabgrass [14]: 3 (Herbicidal rate of 40% or more and less than 70%) | herbicidal effect on P: chickweed [15]: 5 (Herbicidal rate of 90% or more (almost completely withered)) | herbicidal effect on H: barnyard grass [16]: 4 (Herbicidal rate of 70% or more and less than 90%) | herbicidal effect on H (barnyard grass), rating 0-5 [17]: 3 (Herbicidal rate of 40% or more and less than 70%) | herbicidal effect rating, N: redroot pigweed [18]: 5 (Herbicidal rate of 90% or more (almost completely withered)) | herbicidal effect on M: velvetleaf [19]: 1 (Herbicidal rate of 5% or more and less than 20%) | herbicidal effect on Q: false cleavers [20]: 4 (Herbicidal rate of 70% or more and less than 90%) | herbicidal effect rating, J: blackgrass [21]: 0 (Herbicidal rate of 5% or less (almost no effect)) | herbicidal effect rating, R: persian speedwell [22]: 0 (Herbicidal rate of 5% or less (almost no effect)) | herbicidal effect rating, K: Italian ryegrass [23]: 0 (Herbicidal rate of 5% or less (almost no effect)) | herbicidal effect on D (Chinese sprangletop), rating 0-5 [24]: 1 (Herbicidal rate of 5% or more and less than 20%) | herbicidal effect rating, M: velvetleaf [25]: 0 (Herbicidal rate of 5% or less (almost no effect)) | Herbicidal effect on A: late watergrass (grade 0-5) [26]: 1 (Herbicidal rate of 5% or more and less than 20%) | herbicidal effect rating, O: lambsquarters [27]: 3 (Herbicidal rate of 40% or more and less than 70%) | herbicidal effect on I: wild oat [28]: 0 (Herbicidal rate of 5% or less (almost no effect)) | herbicidal effect rating, Q: false cleavers [29]: 0 (Herbicidal rate of 5% or less (almost no effect)) | herbicidal effect on N: redroot pigweed [30]: 3 (Herbicidal rate of 40% or more and less than 70%) | herbicidal effect rating, H: barnyard grass [31]: 2 (Herbicidal rate of 20% or more and less than 40%) | herbicidal effect on L: windgrass [32]: 4 (Herbicidal rate of 70% or more and less than 90%)
